Read-outs that look alike come from different tables or passages of the source. Starred links: 1 amine or outer side, 2 acyl side, 3 side chain; linkers in the order of their positions; H or OH if unused. Residues, ends and D or L forms follow the SMILES beside them. *: point of attachment. C18 diacid = O=C(O)CCCCCCCCCCCCCCCCC(=O)*; γGlu = O=C(O)[C@H](CCC(=O)[*:2])N[*:1]
What was measured:
[1] = biological target: T1, human calcitonin receptor (hCTR) (Homo sapiens, UniProt P30988); experiment: Human calcitonin receptor (hCTR) in vitro potency assay, CRE-luciferase reporter in BHK cells; assay type: cell-based; conditions: BHK hCTR/CRE-Luc cells, 3 hours incubation, assay buffer with 1% ovalbumin; read-out: hCalcR potency, EC50
T1 construct: host or cells: BHK (Baby Hamster Kidney), Hollex-1 cell line
T1 sequence (P30988 25-474): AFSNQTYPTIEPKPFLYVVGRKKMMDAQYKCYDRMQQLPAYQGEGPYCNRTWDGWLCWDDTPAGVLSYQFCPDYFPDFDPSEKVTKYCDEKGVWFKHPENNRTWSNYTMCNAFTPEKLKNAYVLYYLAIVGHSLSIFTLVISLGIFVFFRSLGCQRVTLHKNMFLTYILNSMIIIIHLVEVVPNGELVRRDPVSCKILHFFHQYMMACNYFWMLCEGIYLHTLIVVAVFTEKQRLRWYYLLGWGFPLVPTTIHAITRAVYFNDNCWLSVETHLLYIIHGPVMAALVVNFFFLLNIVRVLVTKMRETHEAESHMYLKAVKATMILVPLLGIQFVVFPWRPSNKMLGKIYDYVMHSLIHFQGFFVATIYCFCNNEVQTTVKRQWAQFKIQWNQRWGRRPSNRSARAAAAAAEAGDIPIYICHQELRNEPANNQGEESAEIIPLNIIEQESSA
How it was run: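 Luciferase signal from a CRE reporter served as the cAMP read-out after 3 h, 37 °C exposure to compound. Cells were stably transfected BHK expressing hCTR, and the buffer was phenol-red-free DMEM with 10 mM HEPES and 1% ovalbumin. Compounds were tested as 7-point, 7-fold dilutions, often from about 10 nM.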

[2] = Oral pharmacokinetic profiles in Beagle dogs (SNAC tablets); assay type: in vivo; conditions: oral tablet: 3 mg compound, 300 mg SNAC, 7.7 mg magnesium stearate
Description: To be able to evaluate oral exposure following tablet dosing, tablet compositions comprising the test substance and SNAC (sodium N-(8-(2-hydroxybenzoyl)amino)caprylate) were prepared by mixing test substance with roller compacted SNAC and magnesium stearate as, e.g., described in WO 2019/149880.
This assay was performed to measure the oral bioavailability of a compound. The assay determined the exposure of test compound following oral administration in Beagle dogs as described by relevant pharmacokinetic parameters and plasma concentration curves.
Preparation of tablets for oral administration: tablets containing test compound used for the assay described herein were immediate release SNAC-based tablets. The test compound was spray-dried as neutral sodium salt (pH 7-8). Dry granulation was carried out by roller compaction on a Gerteis MINI-PACTOR. Tablets containing 3 mg test compound, 300 mg sodium N-(8-(2-hydroxybenzoyl)amino)caprylate (SNAC) and 7.7 mg magnesium stearate were produced on at Kilian Style One using 7.2×12 mm punches.
Determination of the absorption following oral administration: eight (8) male Beagle dogs, 1 to 8 years of age and weighing approximately 10-15 kg at the start of the studies, were used. The dogs were group-housed in pens (12 hours light:12 hours dark), and fed individually and restrictedly once daily with Royal Canin Medium Adult dog (Royal Canin Products, China Branch, or Brogaarden A/S, Denmark). Exercise and group social were permitted daily, whenever possible. The dogs were used for repeated pharmacokinetic studies with a suitable wash-out period between successive dosing. An appropriate acclimatisation period was given prior to initiation of the first pharmacokinetic study. All handling, dosing and blood sampling of the animals were performed by trained and skilled staff. Before the studies the dogs were fasted overnight and from 0 to 4 h after dosing. Besides, the dogs were restricted to water 1 hour before dosing until 4 hours after dosing, but otherwise had ad libitum access to water during the whole period.
Tablets containing the test compound were administered in the following manner: 10 min prior to tablet administration the dogs were dosed subcutaneously with approximately 3.2 nmol/kg of glucagon. The tablets were placed in the back of the mouth of the dog to prevent chewing. The mouth was then closed, and 10 mL of tap water was given by a syringe to facilitate swallowing of the tablet. Blood was sampled at predefined time points for up till 288 hours after dosing to adequately cover the full plasma concentration-time absorption profile of the compound. For each blood sampling time point approximately 1.2 mL of whole blood was collected in a 1.5 mL EDTA coated tube, and the tube was gently turned to allowing mixing of the sample with the EDTA. Then, the blood samples were kept on ice until centrifugation (4 min, 4° C., 4000 rpm). Plasma was pipetted into Micronic tubes on dry ice and kept at −20° C. until analysis. Blood samples were taken as appropriate, for example from a venflon in the cephalic vein in the front leg for the first 2 hours and then with syringe from the jugular vein for the rest of the time points (the first few drops were allowed to drain from the venflon to avoid heparin saline from the venflon in the sample).
Bioanalysis was carried out as follows: plasma concentrations of test compound were assayed by plasma protein precipitation and analysed by liquid chromatography-mass spectrometry (LC-MS). Calibrators were prepared by spiking blank dog plasma with analytes to reach the final concentrations in the range typically from 0.5 to 200 nM. Calibrators, plasma blanks or study samples were prepared for LC-MS by protein precipitation by adding 3 volumes of ethanol followed by centrifugation at 4000 rpm at 4° C. for 1 h. The supernatant was diluted with 2 volumes of Milli-Q water containing 0.1% formic acid before injection on the LC-MS system. […]

[3] = endogenous amylin, background statement; cited from earlier work

EC50 [1] [pM] | half-life ([2]; male, dog, plasma, read-out: T½ (converted)) [days] | AUC/D [2] [kg·h/L] | Cmax/D [2] [kg/L] | Compound | half-life [3] [min]
1.01 | 3.58 | 21.07 | 0.29 | CC[C@H](C)[C@H](NC(=O)[C@@H]1CCCN1C(=O)CNC(=O)[C@H](Cc1ccccc1)NC(=O)[C@H](Cc1c[nH]cn1)NC(=O)[C@H](Cc1c[nH]cn1)NC(=O)[C@H](CC(C)C)NC(=O)[C@H](Cc1ccccc1)NC(=O)[C@H](CCC(=O)O)NC(=O)[C@H](C)NC(=O)[C@H](CC(C)C)NC(=O)[C@H](CCCNC(=N)N)NC(=O)[C@H](C)NC(=O)[C@@H](NC(=O)[C@H](CCC(N)=O)NC(=O)[C@H](C)NC(=O)[C@@H](NC(=O)[C@H](CO)NC(=O)[C@H](CC(C)C)NC(=O)[C@H](CO)NC(=O)CNC(=O)[C@H](C)NC(=O)CC[C@H](NC(=O)CCCCCCCCCCCCCCCCC(=O)O)C(=O)O)[C@@H](C)O)[C@@H](C)O)C(=O)N[C@@H](CC(C)C)C(=O)N1CCC[C@H]1C(=O)N1CCC[C@H]1C(=O)N[C@H](C(=O)N[C@@H](CC(=O)O)C(=O)N[C@H](C(=O)NCC(=O)N[C@@H](CO)C(=O)N[C@@H](CCC(=O)O)C(=O)N[C@H](C(=O)N1CCC[C@H]1C(N)=O)[C@@H](C)O)C(C)C)[C@@H](C)O [Compound 15, N^1-[(4S)-4-carboxy-4-(17-carboxyheptadecanoylamino)butanoy]-[Ala1,Gly2,Ser3,Leu4,Ser5,Ala7,Gln8,Ala10,Glu14,His17,Pro25,Pro28,Pro29,Asp31,Glu35,Pro37],des-(19-22)-human amylin] ({C18 diacid-γGlu}-AGSLSTAQTARLAEFLHHFGPILPPTDVGSETP-NH2) | –
– | – | – | – | amylin (KCNTATCATQRLANFLVHSSNNFGAILSSTNVGSNTY; listed as Homo sapiens) [Endogenous amylin, 37-amino acid long polypeptide hormone co-secreted with insulin from the pancreatic beta-cell] | 15 to 20
